The values that follow come from US20100261765A1, “MINERALOCORTICOID RECEPTOR MODULATORS” (priority 2007, published 2010).

The Ki is a dissociation constant, usually derived from enzyme kinetics or from competition with a known ligand. As usually defined, the inhibition is the relative decrease from the control value, in per cent.

In data set [1] the target is T1, recombinant rhesus mineralocorticoid receptor (Macaca mulatta, UniProt A0A5F8ATS5).
T1 construct: made in house; host or cells: insect cells infected with recombinant baculovirus; clarified lysate used
T1 sequence (A0A5F8ATS5 1-984): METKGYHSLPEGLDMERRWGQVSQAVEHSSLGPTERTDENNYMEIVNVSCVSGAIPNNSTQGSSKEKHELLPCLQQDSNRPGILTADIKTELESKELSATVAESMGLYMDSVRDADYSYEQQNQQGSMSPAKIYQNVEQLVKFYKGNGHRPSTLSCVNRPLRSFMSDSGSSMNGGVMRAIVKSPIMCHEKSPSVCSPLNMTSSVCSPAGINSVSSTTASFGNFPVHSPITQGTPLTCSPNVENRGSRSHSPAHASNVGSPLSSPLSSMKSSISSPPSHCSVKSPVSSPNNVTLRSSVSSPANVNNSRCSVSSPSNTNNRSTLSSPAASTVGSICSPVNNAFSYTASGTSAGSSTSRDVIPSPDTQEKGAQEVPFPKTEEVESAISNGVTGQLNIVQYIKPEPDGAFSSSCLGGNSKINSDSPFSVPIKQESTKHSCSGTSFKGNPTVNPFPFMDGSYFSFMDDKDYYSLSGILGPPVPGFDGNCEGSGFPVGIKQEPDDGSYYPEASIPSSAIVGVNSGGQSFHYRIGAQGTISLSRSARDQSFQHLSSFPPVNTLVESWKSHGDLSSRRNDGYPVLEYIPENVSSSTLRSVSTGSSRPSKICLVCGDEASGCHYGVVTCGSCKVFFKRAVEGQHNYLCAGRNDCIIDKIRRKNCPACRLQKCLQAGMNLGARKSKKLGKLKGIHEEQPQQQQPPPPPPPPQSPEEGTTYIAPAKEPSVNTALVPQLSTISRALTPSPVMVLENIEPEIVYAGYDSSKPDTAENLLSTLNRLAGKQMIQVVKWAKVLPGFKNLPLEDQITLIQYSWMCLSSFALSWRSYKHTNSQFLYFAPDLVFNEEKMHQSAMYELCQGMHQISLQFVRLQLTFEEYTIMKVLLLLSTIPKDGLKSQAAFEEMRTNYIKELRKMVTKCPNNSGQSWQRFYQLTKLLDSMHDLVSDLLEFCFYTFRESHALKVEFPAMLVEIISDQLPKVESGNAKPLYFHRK
Nature of the data set: Mineralocorticoid receptor binding affinity, [3H]-aldosterone filter binding assay. The method, then:
Measurement of Mineralocorticoid Receptor Binding Affinity
The binding affinity of compounds for the mineralocorticoid receptor was determined by measuring their ability to prevent binding of radiolabeled aldosterone to recombinant rhesus mineralocorticoid receptor in a traditional filter binding assay protocol.
Rhesus mineralocorticoid receptor cDNA was cloned from a cDNA library using and used to prepare a recombinant baculovirus encoding the rhesus mineralocorticoid receptor coding sequence by standard molecular biological and cell biological methods. […] Cells were collected and lysed. The lysates were clarified by centrifugation and stored at −80 C until use in the radioligand binding assay.
[^3H]-Aldosterone (1 mCi/ml, 70-100 Ci/mmol) was purchased from Perkin Elmer (NET419). Test compounds were dissolved in DMSO and diluted in DMSO to 50 times the desired final concentrations for 3-fold serial dilution dose response curves. […] The insect cell lysate containing rhesus mineralocorticoid receptor was thawed and diluted to 0.7 mg protein/mL. Assay were started by combining 20 μL of test compound solution, 920 μL of diluted insect cell lysate, and 60 μL of [^3H]-aldosterone working solution in 2-mL 96-well polypropylene square well plates (USA Scientific) at 20° C. The mixture was incubated for 3 hr with continuous agitation on a platform shaker. […] The filter plate was washed 3 times with 0.5 mL of 50 mM Tris-HCl, pH 7.4 and then dried overnight at 37° C. in a vacuum oven. […] Non-specific radioligand binding was determined by adding non-radiolabeled aldosterone (0.5 mM in DMSO) to the assay mixture to a final concentration of 10 μM in place of test compound. IC50 and Ki values were determined using a four parameter logistic fit using a customized assay data analyzer software package.

For another data set, the target named is T2, Cav1.2 (Homo sapiens, UniProt Q13936).
T2 construct: expressed in transfected cells; host or cells: HEK293 cell line (Xia, et al., 2004) also expressing Kir2.3
Briefly: Calcium channel block, FLIPR TETRA fluorescence assay in HEK293 cells expressing L-type calcium channels. As to conditions: pH 7.2, 25 mM potassium; for inhibition at 30 min, 0.3 μM: 0.3 μM compound, read-out: FLIPRIETRA Cav1.2 % Inhibition 0.3 μM; for inhibition at 30 min, 1 μM: 1 μm compound, read-out: FLIPRIETRA Cav1.2 % Inhibition 1 μm; for inhibition at 30 min, 3 μM: 3 μm compound, read-out: FLIPRIETRA Cav1.2 % Inhibition 3 μm; for inhibition at 30 min, 10 μM: 10 μm compound, read-out: FLIPRIETRA Cav1.2 % Inhibition 10 μm; for inhibition at 30 min, 30 μM: 30 μm compound, read-out: FLIPRIETRA Cav1.2 % Inhibition 30 μm. The data set is classed as cell-based. The method, then: Measurement of Calcium Channel Block
A high-throughput fluorescence assay for state-dependent block of L-type channels was established as a counterscreen for blockers of N-type calcium channels. […] This allows the cell membrane potential to be preset during compound incubation, which can be used to assay state-dependent channel block. Running the assay in the presence of high potassium (25 mM) sets the membrane potential to a value (−35 mV) at which approximately half of the calcium channels are inactivated and some are open. This condition favors block by many L-type calcium channel blockers that lower blood pressure, including dihydropyridines, phenylalkylamines and benzothiazepines.
Initially, the compounds were incubated in 0.005 μM calcium and 25 mM potassium for 30 minutes. Calcium influx was triggered by buffer addition that raises the calcium concentration to 2 mM while maintaining the potassium concentration at 25 mM. Changes in intracellular calcium were then monitored using a calcium-sensitive fluorescent dye (fluo-4) and a FLIPR^TETRA plate reader.
The following experimental protocol was used:
1. Cells were seeded in a Poly-D-Lysine Coated 384-well plate (50 μl/well) and incubated overnight at 37° C. under 10% CO2;
4. Cells were then incubated in the dark at 25° C. for 30 minutes;
5. […] 25 mM KCl, 0.005 mM CaCl2, 1.7 mM MgCl2, 10 HEPES, pH=7.2;
6. 0.025 ml of 25 mM K PPB was then added, with or without the presence of a test compound;
7. Cells incubated in the dark at 25° C. for 30 min
8. Cell plates are then read on the FLIPR^TETRA instrument, Excitation=480 nm, Emission=535 nm;

The mark [2] stands for this setting: average of Rep#1 and Rep#2, read-out: MRBIND Ki (nM) Average.
Setting [3] is: replicate 1, read-out: MRBIND Ki (nM) Rep#1.
Setting [4] is: replicate 2, read-out: MRBIND Ki (nM) Rep#2.

Each structure is given as a SMILES string. Like-named read-outs stand apart in the source and are kept apart here.

T2 sequence (Q13936 whole entry): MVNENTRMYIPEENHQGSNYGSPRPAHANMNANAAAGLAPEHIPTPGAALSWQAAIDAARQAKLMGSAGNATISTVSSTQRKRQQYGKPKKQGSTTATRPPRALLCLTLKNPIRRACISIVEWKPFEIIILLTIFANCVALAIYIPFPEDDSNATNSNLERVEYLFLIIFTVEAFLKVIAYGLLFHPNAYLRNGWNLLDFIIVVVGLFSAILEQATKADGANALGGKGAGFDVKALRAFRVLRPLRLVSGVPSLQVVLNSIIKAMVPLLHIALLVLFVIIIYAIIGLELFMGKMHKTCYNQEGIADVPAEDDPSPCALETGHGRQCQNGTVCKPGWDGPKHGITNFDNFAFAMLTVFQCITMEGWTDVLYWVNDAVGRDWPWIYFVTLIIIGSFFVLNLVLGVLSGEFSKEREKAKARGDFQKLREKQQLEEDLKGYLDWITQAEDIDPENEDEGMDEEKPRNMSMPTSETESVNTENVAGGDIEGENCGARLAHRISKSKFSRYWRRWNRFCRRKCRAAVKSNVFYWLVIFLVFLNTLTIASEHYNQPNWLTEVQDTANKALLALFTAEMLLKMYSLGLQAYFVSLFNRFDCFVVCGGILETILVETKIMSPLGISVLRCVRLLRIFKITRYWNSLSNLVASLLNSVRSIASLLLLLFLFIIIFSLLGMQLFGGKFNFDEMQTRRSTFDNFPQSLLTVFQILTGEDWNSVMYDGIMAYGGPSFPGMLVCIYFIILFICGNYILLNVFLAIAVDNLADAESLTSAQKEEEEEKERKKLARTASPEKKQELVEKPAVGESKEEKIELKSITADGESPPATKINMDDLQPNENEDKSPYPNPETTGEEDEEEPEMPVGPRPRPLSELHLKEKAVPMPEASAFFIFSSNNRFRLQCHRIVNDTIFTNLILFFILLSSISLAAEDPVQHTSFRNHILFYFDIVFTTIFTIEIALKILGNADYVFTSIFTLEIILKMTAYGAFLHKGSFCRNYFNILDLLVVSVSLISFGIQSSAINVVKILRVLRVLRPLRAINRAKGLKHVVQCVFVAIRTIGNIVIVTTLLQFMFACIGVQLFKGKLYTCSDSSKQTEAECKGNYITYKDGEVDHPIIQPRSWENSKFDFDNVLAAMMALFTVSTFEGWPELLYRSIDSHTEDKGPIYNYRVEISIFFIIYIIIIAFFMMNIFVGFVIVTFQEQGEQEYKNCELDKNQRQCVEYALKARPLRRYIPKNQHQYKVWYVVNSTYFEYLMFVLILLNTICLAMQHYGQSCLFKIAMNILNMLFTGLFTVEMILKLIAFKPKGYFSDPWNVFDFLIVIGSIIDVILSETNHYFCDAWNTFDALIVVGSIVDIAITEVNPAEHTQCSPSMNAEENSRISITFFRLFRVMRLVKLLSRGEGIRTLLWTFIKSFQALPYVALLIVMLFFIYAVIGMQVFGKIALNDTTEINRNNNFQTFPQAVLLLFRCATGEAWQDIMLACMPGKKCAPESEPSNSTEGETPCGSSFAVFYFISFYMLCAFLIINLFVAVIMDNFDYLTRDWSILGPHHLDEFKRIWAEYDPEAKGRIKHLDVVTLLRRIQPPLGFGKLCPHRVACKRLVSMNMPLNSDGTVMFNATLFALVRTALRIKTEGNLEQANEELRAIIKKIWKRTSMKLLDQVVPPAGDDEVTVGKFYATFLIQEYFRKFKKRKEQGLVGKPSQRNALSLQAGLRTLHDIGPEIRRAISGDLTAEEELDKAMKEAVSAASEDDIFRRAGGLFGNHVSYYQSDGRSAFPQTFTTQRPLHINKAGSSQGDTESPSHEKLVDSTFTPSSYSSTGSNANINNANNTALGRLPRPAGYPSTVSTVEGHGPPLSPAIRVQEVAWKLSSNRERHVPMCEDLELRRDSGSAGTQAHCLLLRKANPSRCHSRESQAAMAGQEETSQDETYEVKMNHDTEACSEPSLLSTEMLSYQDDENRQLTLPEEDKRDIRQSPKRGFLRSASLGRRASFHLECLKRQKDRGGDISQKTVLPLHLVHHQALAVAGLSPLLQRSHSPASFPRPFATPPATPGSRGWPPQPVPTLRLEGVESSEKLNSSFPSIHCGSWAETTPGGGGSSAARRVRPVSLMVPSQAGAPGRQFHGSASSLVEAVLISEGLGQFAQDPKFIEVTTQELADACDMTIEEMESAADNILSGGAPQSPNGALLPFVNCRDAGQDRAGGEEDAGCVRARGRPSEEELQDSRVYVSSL
T2 sequence (P54289 25-946 partner limits assumed): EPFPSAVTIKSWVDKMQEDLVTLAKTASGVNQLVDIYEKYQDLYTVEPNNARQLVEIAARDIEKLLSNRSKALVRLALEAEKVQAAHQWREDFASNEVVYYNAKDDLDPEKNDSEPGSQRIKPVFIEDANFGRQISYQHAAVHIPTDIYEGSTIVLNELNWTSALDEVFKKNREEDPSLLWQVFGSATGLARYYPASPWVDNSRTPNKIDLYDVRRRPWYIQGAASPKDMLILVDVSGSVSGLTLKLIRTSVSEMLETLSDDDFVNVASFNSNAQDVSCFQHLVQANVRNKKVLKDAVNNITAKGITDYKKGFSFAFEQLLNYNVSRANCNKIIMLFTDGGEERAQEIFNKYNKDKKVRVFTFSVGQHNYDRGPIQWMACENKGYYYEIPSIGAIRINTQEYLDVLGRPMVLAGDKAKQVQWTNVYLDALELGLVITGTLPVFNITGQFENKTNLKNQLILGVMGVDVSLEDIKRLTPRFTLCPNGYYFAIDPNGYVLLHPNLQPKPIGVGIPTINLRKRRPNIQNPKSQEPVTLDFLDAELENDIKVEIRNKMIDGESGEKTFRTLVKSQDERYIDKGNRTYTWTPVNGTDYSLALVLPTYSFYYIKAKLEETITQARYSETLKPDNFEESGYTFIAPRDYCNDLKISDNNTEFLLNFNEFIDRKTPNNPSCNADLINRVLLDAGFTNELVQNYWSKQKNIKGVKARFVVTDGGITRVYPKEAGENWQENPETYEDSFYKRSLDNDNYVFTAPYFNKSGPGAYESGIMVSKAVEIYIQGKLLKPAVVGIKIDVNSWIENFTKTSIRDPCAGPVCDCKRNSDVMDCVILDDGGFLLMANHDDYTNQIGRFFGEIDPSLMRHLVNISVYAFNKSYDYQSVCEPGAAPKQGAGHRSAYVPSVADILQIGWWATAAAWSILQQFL
T2 sequence (P54289 947-1103 partner limits assumed): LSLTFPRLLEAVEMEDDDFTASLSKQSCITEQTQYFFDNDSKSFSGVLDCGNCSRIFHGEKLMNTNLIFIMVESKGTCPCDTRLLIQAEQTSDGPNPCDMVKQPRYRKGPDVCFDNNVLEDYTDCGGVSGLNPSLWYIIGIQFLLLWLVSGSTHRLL
T2 sequence (Q08289 whole entry partner): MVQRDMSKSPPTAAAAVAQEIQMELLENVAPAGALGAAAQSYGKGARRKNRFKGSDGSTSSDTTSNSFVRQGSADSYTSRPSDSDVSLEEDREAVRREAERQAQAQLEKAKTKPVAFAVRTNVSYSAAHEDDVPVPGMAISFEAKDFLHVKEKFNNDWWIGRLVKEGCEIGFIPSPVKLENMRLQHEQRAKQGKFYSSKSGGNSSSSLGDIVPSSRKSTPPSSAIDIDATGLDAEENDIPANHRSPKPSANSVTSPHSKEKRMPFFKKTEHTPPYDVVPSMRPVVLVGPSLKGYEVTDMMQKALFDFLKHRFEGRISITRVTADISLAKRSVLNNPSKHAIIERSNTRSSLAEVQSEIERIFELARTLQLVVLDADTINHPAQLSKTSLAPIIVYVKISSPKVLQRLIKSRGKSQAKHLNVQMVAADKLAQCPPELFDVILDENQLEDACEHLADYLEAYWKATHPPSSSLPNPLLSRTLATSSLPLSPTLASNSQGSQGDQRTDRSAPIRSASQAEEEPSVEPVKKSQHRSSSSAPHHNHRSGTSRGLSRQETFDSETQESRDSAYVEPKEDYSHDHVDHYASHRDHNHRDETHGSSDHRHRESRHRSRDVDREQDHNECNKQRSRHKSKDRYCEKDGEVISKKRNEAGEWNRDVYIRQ

Regarding `CCSC1=C(C#N)C(c2ccccc2Cl)C(C(=O)Nc2ccccc2OC)=C(C)N1` (stereo not drawn) [4-(2-chlorophenyl)-5-cyano-6-(ethylthio)-N-(2-methoxyphenyl)-2-methyl-1,4-dihydropyridine-3-carboxamide], in data set [1] (setting [2]), the inhibition constant (Ki) came out at 53 nM. Also, in data set [1] (setting [3]), the inhibition constant Ki came to 90 nM. In data set [1] (setting [4]), the Ki is 16 nM. In addition, at Cav1.2, the inhibition at 30 min, 0.3 μM came out at 41%; the inhibition at 30 min, 1 μM stood at 83%; the inhibition at 30 min, 3 μM stood at 92%; the inhibition at 30 min, 10 μM stood at 98%. In addition, the inhibition at 30 min, 30 μM at Cav1.2 stood at 104%.

Consider `COc1ccccc1NC(=O)C1=C(C)NC(SC)=C(C#N)C1c1ccccc1Cl` (stereo not drawn) [4-(2-chlorophenyl)-5-cyano-N-(2-methoxyphenyl)-2-methyl-6-(methylthio)-1,4-dihydropyridine-3-carboxamide], for which the Ki in data set [1] (setting [2]) is 193 nM. The Ki in data set [1] (setting [3]) is 250 nM. For the same compound, in data set [1] (setting [4]), the Ki worked out at 137 nM. On Cav1.2, the inhibition at 30 min, 0.3 μM is -3%; the inhibition at 30 min, 1 μM was 14%; the inhibition at 30 min, 3 μM worked out at 35%; the inhibition at 30 min, 10 μM is 74%.

As for `CCCSC1=C(C#N)C(c2ccccc2Cl)C(C(=O)Nc2ccccc2OC)=C(C)N1` (stereo not drawn) [4-(2-chlorophenyl)-5-cyano-N-(2-methoxyphenyl)-2-methyl-6-(propylthio)-1,4-dihydropyridine-3-carboxamide], in data set [1] (setting [2]), the inhibition constant (Ki) is 14.9 nM. Besides, in data set [1] (setting [3]), the inhibition constant Ki turned out to be 11.6 nM. Besides, the Ki in data set [1] (setting [4]) was 18.2 nM. Besides, at Cav1.2, the inhibition at 30 min, 0.3 μM is 31%; the inhibition at 30 min, 1 μM came to 69%; the inhibition at 30 min, 3 μM was found to be 90%; the inhibition at 30 min, 10 μM amounted to 96%. For the same compound, the inhibition at 30 min, 30 μM on Cav1.2 turned out to be 102%.

On to `CCOc1ccccc1C1C(C#N)=C(SC)NC(C)=C1C(=O)Nc1ccccc1` (stereo not drawn) [5-cyano-4-(2-ethoxyphenyl)-2-methyl-6-(methylthio)-N-phenyl-1,4-dihydropyridine-3-carboxamide], for which the Ki in data set [1] (setting [2]) is 1390 nM. Moreover, the Ki in data set [1] (setting [3]) amounted to 1140 nM. The inhibition constant Ki in data set [1] (setting [4]) was 1650 nM. Further, at Cav1.2, the inhibition at 30 min, 0.3 μM is 4%; the inhibition at 30 min, 1 μM was determined as 26%; the inhibition at 30 min, 3 μM came out at 55%; the inhibition at 30 min, 10 μM is 82%.

Turning to `COC(=O)C1=C(C)NC(C)=C(C(=O)OC)C1c1cccc2ccccc12` [Dimethyl 2,6-dimethyl-4-(1-naphthyl)-1,4-dihydropyridine-3,5-dicarboxylate], the Ki in data set [1] (setting [2]) is 61 nM. In addition, the Ki in data set [1] (setting [3]) turned out to be 69 nM. The Ki in data set [1] (setting [4]) worked out at 53 nM. At Cav1.2, the inhibition at 30 min, 0.3 μM came to 80%; the inhibition at 30 min, 1 μM was 88%; the inhibition at 30 min, 3 μM stood at 94%; the inhibition at 30 min, 10 μM was 100%. The inhibition at 30 min, 30 μM on Cav1.2 was 104%.

For `C=CCOC(=O)C1=C(C)NC(C)=C(C(=O)OCC=C)C1c1cccc([N+](=O)[O-])c1` [diallyl 2,6-dimethyl-4-(3-nitrophenyl)-1,4-dihydropyridine-3,5-dicarboxylate], in data set [1] (setting [2]), the inhibition constant Ki amounted to 462 nM. Further, in data set [1] (setting [3]), the inhibition constant Ki turned out to be 472 nM. Also, the Ki in data set [1] (setting [4]) amounted to 453 nM. Moreover, at Cav1.2, the inhibition at 30 min, 0.3 μM amounted to 81%; the inhibition at 30 min, 1 μM came to 83%; the inhibition at 30 min, 3 μM is 82%; the inhibition at 30 min, 10 μM was found to be 81%.

As for `CCOC(=O)C1=C(C)NC(C)=C(C(=O)OCC)C1c1ccc([N+](=O)[O-])cc1` [diethyl 2,6-dimethyl-4-(4-nitrophenyl)-1,4-dihydropyridine-3,5-dicarboxylate], in data set [1] (setting [2]), the Ki worked out at 219 nM. In addition, the Ki in data set [1] (setting [3]) is 184 nM. Also, the Ki in data set [1] (setting [4]) is 254 nM. Further, at Cav1.2, the inhibition at 30 min, 0.3 μM was 25%; the inhibition at 30 min, 1 μM amounted to 43%; the inhibition at 30 min, 3 μM amounted to 59%; the inhibition at 30 min, 10 μM worked out at 76%.

Consider `C=Cc1ccccc1C1C(C(=O)OC)=C(C)NC(C)=C1C(=O)OC` [dimethyl 2,6-dimethyl-4-(2-vinylphenyl)-1,4-dihydropyridine-3,5-dicarboxylate], for which, in data set [1] (setting [2]), the Ki stood at 489 nM. The Ki in data set [1] (setting [3]) is 570 nM. Also, the Ki in data set [1] (setting [4]) is 408 nM. Further, at Cav1.2, the inhibition at 30 min, 0.3 μM is 74%; the inhibition at 30 min, 1 μM worked out at 74%; the inhibition at 30 min, 3 μM was 78%; the inhibition at 30 min, 10 μM turned out to be 87%.

In the case of `COC(=O)C1=C(C)NC(C)=C(C(=O)OC)C1c1cccc(Cl)c1Cl` [dimethyl 4-(2,3-dichlorophenyl)-2,6-dimethyl-1,4-dihydropyridine-3,5-dicarboxylate], in data set [1] (setting [2]), the inhibition constant (Ki) came to 375 nM. Besides, the Ki in data set [1] (setting [3]) was 382 nM. The Ki in data set [1] (setting [4]) was determined as 368 nM. Further, on Cav1.2, the inhibition at 30 min, 0.3 μM was 73%; the inhibition at 30 min, 1 μM stood at 75%; the inhibition at 30 min, 3 μM amounted to 77%; the inhibition at 30 min, 10 μM worked out at 78%. Moreover, at Cav1.2, the inhibition at 30 min, 30 μM turned out to be 84%.

`COC(=O)C1=C(C)NC(C)=C(C(=O)OC)C1c1ccc(Cl)c(Cl)c1` [dimethyl 4-(3,4-dichlorophenyl)-2,6-dimethyl-1,4-dihydropyridine-3,5-dicarboxylate]: the Ki in data set [1] (setting [2]) was 203 nM. The Ki in data set [1] (setting [3]) was determined as 83 nM. In data set [1] (setting [4]), the inhibitory constant (Ki) was 324 nM. At Cav1.2, the inhibition at 30 min, 0.3 μM stood at 34%; the inhibition at 30 min, 1 μM was determined as 59%; the inhibition at 30 min, 3 μM was determined as 77%; the inhibition at 30 min, 10 μM came to 87%. In addition, the inhibition at 30 min, 30 μM at Cav1.2 is 89%.
